Laboratory results taken from patent US20060234977A1, “Antiviral compostion comprising a sulphated glucose polymer and a bacteriostatic agent” (priority 2003, published 2006).

Experiments:
HIV = assay: Activity against HIV and other sexually transmitted diseases; conditions: by comparison with dextrin 2- and 6-sulphates

Substance	activity against HIV and other sexually transmitted diseases (STDs) (HIV)	spermicidal activity (Spermicidal activity)
Dextrin 3-sulphate [Example 1]	relatively poor activity	–
dextrin sulphate	–	little or no spermicidal activity
